Source: patent publication US20060089400A1, “Novel spiro ketone and carboxylic acid derivatives as specific inhibitors for (po3h2) ser/(po3h2)thr-pro-specific peptidyl-prolylcis/trans-isomerases” (The Vernalis Group of Companies, priority 2002, published 2006)

Each compound was assayed against T1, human Pin1 (recombinant from E. coli) (Homo sapiens, UniProt Q13526) (assay: protease-coupled PPIase assay, inhibition of hPin1). Conditions: protease-coupled PPlase assay; substrate Ac-Ala-Ala-(PO3H2)Ser-Pro-Arg-(4-)nitroanilide; trypsin; 2 nM enzyme; 35 mM HEPES pH 7.8; 10° C.; 5 min preincubation; read-out: hPin1-inhibition K1.
T1 construct: made in house; host or cells: E. coli
Type: biochemical
Text: As described in example 1, the peptidyl-prolyl-cis/trans-isomerase activity can be determined in the so-called protease coupled PPlase assay with the help of isomer-specific proteolysis and the suitable oligopeptide substrates and isomer-specific proteases. Other processes for the detection of PPlase activity are e.g. observing isomer-specific differences with respect to spectroscopic properties, their mobilities or the foldback catalysis of other proteins as well as isomer-specific chemical compounds when recording core resonance spectra.
If adding active components to one of the test systems listed above leads to a measurable decrease in the reaction speed catalysed by the respective PPlase, these active components are classed PPlase inhibitors, as is exemplarily shown in example 1. Assessment of the PPlase specificity of the inhibitor is carried out by testing different PPlases in the assay. By varying the concentration of the inhibitor and assessing the results measured with conventional processes, the corresponding inhibition constant (KI-value) can be determined. The concentration of the inhibitor which inhibits the PPlase-induced catalysis by 50% is called IC50-value.
Determining the inhibition constants of the selected compound according to the invention 1′,2′,3′H-spiro[indene-3′,3-(3H-5-methoxy-benzofurane-2-one)] vis-à-vis the PPlase hPinl by protease-coupled PPlase assay: • Buffer: 35 mM HEPES (pH 7.8), 1,200 μl • Substrate: Ac-Ala-Ala-(PO3H2)Ser-Pro-Arg-(4-)nitroanilide stock solution 10 mg/ml in 35 mM Hepes (pH 7.8), • Auxiliary protease: trypsin (Roth), stock solution 10 mg/ml in 35 mM Hepes (ph 7.8), concentration in the solution for measuring 0.34 mg/ml • Enzyme: human Pin1 (recombinant from E. coli), stock solution 0.55 μM, concentration in the solution for measuring: 2 nM • Effectors: effector stock solution 10 mM in DMSO, concentration in the solution for measuring between 1,000 and 0.01 μM • Temperature: 10° C.
In the incubation solution, the effectors were preincubated with the enzyme for 5 min, then 3.5 μl of the auxiliary protease trypsin were added and the reaction was started immediately afterwards by adding 3.5 μl substrate. The reaction was monitored at a wave length of 390 nm with the measuring instrument Hewlett Packard UVNIS spectrophotometer HP 8452A. The kinetic analysis of the data was carried out by “SigmaPlot” (Scientific Graphing System Vers. 2.0, Jandel Corp.).

T1 sequence (Q13526 whole entry): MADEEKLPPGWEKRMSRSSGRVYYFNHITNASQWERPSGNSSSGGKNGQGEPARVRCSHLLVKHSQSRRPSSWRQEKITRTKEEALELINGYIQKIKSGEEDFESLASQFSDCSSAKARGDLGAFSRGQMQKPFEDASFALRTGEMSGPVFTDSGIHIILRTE

Row | SMILES | Ki [µM]
1 | COc1ccc2c(c1)C1(CC(C)c3ccccc31)C(=O)O2 (stereo not drawn) [1′,2′,3′H-sprio[1′-methyl-indene-3′,3-(3H-5-methoxy-benzofurane-2-one)]] | 20
2 | O=C1Oc2ccccc2C12Cc1ccccc1C2 [1′,2′,3′H-sprio[indene-2′,3-(3H-benzofurane-2-one)]] | 7
3 | COC(=O)C1(c2ccccc2O)CCc2ccccc21 (stereo not drawn) | 27
4 | COc1ccc(OC)c(C(=O)C2CCc3ccccc32)c1 (stereo not drawn) [1-(2,5-dimethoxyphenyl)-1′-indane-1′-1-methanone] | 50
5 | O=C1Oc2ccccc2C12CC=CC2 [1′,2′,3′H-spiro[cyclopentene-3′,3-(3H-benzofurane-2-one)]] | 150
6 | COc1ccc2c(c1)C1(CCc3ccccc31)C(=O)O2 (stereo not drawn) [1′,2′,3′H-spiro[indene-3′,3-(3H-5-methoxy-benzofurane-2-one)]] | 6
